Measurements from patent publication US10385052B2, “Tricyclic compound and JAK inhibitor” (NISSAN CHEMICAL CORPORATION, priority 2014, dated 2019).

Assays:
[1] = test system: cytokine signaling via JAK; test: Signal assay in human whole blood (STAT phosphorylation assay); format: cell-based; conditions: T-cell, human IL-6 100 ng/mL, phosphated STAT-1 in CD3 positive T cells
Description: 3. Signal Assay in Human Whole Blood
The inhibitory activities of the compounds of the present invention obtained in Synthetic Examples 3 to 7 against cytokine signaling via JAK were measured by STAT phosphorylation assay using human whole blood.
Human whole blood was collected from healthy humans.
Human IL-6 was purchased from R&D systems.
Each compound was used at six concentrations of 3 μM, 1.5 μM, 0.75 μM, 0.38 μM, 0.19 μM and 0.093 μM, at six concentrations of 2 μM, 1 μM, 0.5 μM, 0.25 μM, 0.13 μM and 0.063 μM, or at six concentrations of 10 μM, 5 μM, 2.5 μM, 1.25 μM, 0.63 μM and 0.31 μM.
The concentration of human IL-6 was 100 ng/mL.
(§1) Human blood and a compound were put into each Costar assay block tube and incubated at 37° C. for 30 minutes, then incubated with human IL-6 at 37° C. for 15 minutes and incubated with 10 times as much of BD Phosflow Lyse/Fix Buffer as the blood at 37° C. for 12 minutes. Centrifugal separation was carried out at 5,884 m/s^2 for 6 minutes with a centrifugal separator to precipitate the cells, and the supernatants were removed.
(§2) The cell pellets were washed with 1 mL of phosphate buffered saline (PBS), then incubated with 0.6 mL of BD Phosflow Perm Buffer III on ice for 30 minutes and centrifuged at 5,884 m/s^2 for 6 minutes by means of a centrifugal separator to precipitate the cells, and the supernatants were removed.
(§3) The cell pellets were washed with 0.3 mL of BD Pharmingen Stain Buffer and incubated with 0.1 mL of BD Pharmingen Stain Buffer, 10 μL of BD Phosflow STAT-1 and 5 μL of FITC-hCD3 at room temperature for 30 minutes. After addition of 0.1 mL of BD Pharmingen Stain Buffer, the cells were centrifuged at 5,884 m/s^2 for 6 minutes by means of a centrifugal separator to precipitate the cells, and the supernatants were removed.
(§4) The cell pellets were washed with 0.3 mL of BD Pharmingen Stain Buffer, and 0.12 mL of BD Pharmingen Stain Buffer was added. The cytokine signaling inhibition was measured with FACS Cantoll (manufactured by BD) by detecting FITC-labeled CD3 positive T cells and detecting the amount of phosphated STAT-1 protein in the cells as the PE fluorescence. From the plot of the logarithm of a compound concentration and inhibitory activity, the IC50 value was calculated.

Tyk2 = Tyk2 (Homo sapiens (Human), UniProt P29597); test: Tyk2 enzyme assay; format: biochemical; conditions: enzyme 0.25 μg/mL, ATP 20 μM
Description: (§5) The JAK inhibitory activities of compounds of the present invention were measured.
(§6) The enzymes (JAK1, JAK2, JAK3 and Tyk2) were purchased from Carna Biosciences, Inc.
(§7) As the substrate for the enzymes (hereinafter referred to as the substrate), LANCE Ultra ULight-JAK-1 (Tyr1023) Peptide (manufactured by PerkinElmer Co., Ltd.) was used.
(§8) As the antibody for detecting phosphorylation of the substrate, LANCE Ultra Europium-anti-phospho tyrosine antibody (PT66) (manufactured by PerkinElmer Co., Ltd.) was used.
(§9) The compounds of the present invention, the enzymes (JAK1, JAK2, JAK3 and Tyk2), the substrate and ATP were used for the assays after diluted with the assay buffer.
(§10) The enzyme concentrations and the ATP concentrations in the respective enzyme (JAK1, JAK2, JAK3 and Tyk2) assays were as follows.
Tyk2 enzyme assay; the enzyme concentration was 0.25 μg/mL and the ATP concentration was 20 μM.
(§11) The concentration of the substrate for the enzymes was 25 nM.
(§12) Dilute solutions of compounds and enzymes were dispensed into wells of a 384-well black plate (manufactured by Greiner bio-one) and preincubated at room temperature for 5 minutes.
(§13) Then, a dilute solution of the substrate and then a dilute solution of ATP were added, and the plate was incubated at room temperature for 30 minutes.
(§14) Then, a dilute solution of EDTA and then a dilute solution of PT66 were added, and the plate was incubated at room temperature for 1 hour.
(§15) The fluorescences were measured with ARVO-HTS, and from the plot of logarithm of a compound concentration and inhibitory activity, the IC50 value was calculated.

JAK3 = JAK3 (Homo sapiens (Human), UniProt P52333); test: JAK3 enzyme assay; format: biochemical; conditions: enzyme 0.020 μg/mL, ATP 3 μM
Description: as §5, §6, §7, §8, §9, §10
JAK3 enzyme assay; the enzyme concentration was 0.020 μg/mL, and the ATP concentration was 3 μM.
as §11, §12, §13, §14, §15

JAK2 = JAK2 (Homo sapiens (Human), UniProt O60674); test: JAK2 enzyme assay; format: biochemical; conditions: enzyme 0.013 μg/mL, ATP 10 μM
Description: as §5, §6, §7, §8, §9, §10
JAK2 enzyme assay; the enzyme concentration was 0.013 μg/mL, and the ATP concentration was 10 μM.
as §11, §12, §13, §14, §15

JAK1 = JAK1 (Homo sapiens (Human), UniProt P23458); test: JAK1 enzyme assay; format: biochemical; conditions: enzyme 0.5 μg/mL, ATP 70 μM
Description: as §5, §6, §7, §8, §9, §10
JAK1 enzyme assay; the enzyme concentration was 0.5 μg/mL, and the ATP concentration was 70 μM.
as §11, §12, §13, §14, §15

[2] = test system: cytokine signaling via JAK; test: Signal assay in rat whole blood (STAT phosphorylation assay); format: cell-based; conditions: T-cell; female Lewis rat whole blood, rat IL-6 100 ng/mL, phosphated STAT-1 in CD3 positive T cells
Description: 2. Signal Assay in Rat Whole Blood
The inhibitory activities of the compounds of the present invention obtained in Synthetic Examples 1 and 2 against cytokine signaling via JAK were measured by STAT phosphorylation assay using rat whole blood.
Female Lewis rats were purchased from CHARLES RIVER LABORATORIES JAPAN, INC.
Rat IL-6 was purchased from PeproTech.
Each compound was used at three consecutive concentrations of 1 μM, 0.1 μM and 0.01 μM, or 10 μM, 1 μM and 0.1 μM.
The concentration of rat IL-6 was 100 ng/mL.
The concentration of FITC-CD3 was 1 μg/mL.
as §1, with “The” for “Human”, “15” for “30”, “FITC-CD3 at 37° C. for 15 minutes, incubated with rat” for “human”
as §2
as §3, with “Pharmingen Stain Buffer and 10 μL” for “Pharmingen Stain Buffer, 10 μL”, “Phosflow STAT-1 at room” for “Phosflow STAT-1 and 5 μL of FITC-hCD3 at room”
as §4

Chain of JAK3 (P52333 whole entry): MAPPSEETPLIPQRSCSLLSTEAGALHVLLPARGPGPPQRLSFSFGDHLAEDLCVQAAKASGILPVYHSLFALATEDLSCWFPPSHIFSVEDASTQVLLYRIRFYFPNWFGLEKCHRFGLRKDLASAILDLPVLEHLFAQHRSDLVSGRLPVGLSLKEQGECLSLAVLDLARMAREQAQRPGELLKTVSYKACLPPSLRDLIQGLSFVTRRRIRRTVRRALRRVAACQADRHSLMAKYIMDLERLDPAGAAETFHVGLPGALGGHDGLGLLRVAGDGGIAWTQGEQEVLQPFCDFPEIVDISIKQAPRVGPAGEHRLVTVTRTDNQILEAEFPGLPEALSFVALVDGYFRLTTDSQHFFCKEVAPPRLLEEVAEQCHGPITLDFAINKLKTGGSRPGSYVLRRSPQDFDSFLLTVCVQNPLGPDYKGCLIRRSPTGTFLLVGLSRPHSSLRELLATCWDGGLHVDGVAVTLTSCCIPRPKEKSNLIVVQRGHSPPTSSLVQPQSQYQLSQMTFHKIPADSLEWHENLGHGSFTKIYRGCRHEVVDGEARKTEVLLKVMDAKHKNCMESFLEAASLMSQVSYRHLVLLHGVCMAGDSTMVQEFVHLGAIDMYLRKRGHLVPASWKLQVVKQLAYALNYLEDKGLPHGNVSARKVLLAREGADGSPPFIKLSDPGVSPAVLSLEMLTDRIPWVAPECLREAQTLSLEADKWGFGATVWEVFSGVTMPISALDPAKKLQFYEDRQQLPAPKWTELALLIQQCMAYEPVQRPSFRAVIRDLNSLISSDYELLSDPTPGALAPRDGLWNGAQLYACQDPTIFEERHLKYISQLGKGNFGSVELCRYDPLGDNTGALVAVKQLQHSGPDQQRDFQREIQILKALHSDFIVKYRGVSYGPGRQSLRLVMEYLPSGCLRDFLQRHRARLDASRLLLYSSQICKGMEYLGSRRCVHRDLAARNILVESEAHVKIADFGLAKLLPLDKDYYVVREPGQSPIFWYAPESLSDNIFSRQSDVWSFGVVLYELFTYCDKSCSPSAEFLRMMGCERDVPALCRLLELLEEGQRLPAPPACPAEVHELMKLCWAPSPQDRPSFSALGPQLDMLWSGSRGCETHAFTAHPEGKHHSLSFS
Chain of JAK1 (P23458 whole entry): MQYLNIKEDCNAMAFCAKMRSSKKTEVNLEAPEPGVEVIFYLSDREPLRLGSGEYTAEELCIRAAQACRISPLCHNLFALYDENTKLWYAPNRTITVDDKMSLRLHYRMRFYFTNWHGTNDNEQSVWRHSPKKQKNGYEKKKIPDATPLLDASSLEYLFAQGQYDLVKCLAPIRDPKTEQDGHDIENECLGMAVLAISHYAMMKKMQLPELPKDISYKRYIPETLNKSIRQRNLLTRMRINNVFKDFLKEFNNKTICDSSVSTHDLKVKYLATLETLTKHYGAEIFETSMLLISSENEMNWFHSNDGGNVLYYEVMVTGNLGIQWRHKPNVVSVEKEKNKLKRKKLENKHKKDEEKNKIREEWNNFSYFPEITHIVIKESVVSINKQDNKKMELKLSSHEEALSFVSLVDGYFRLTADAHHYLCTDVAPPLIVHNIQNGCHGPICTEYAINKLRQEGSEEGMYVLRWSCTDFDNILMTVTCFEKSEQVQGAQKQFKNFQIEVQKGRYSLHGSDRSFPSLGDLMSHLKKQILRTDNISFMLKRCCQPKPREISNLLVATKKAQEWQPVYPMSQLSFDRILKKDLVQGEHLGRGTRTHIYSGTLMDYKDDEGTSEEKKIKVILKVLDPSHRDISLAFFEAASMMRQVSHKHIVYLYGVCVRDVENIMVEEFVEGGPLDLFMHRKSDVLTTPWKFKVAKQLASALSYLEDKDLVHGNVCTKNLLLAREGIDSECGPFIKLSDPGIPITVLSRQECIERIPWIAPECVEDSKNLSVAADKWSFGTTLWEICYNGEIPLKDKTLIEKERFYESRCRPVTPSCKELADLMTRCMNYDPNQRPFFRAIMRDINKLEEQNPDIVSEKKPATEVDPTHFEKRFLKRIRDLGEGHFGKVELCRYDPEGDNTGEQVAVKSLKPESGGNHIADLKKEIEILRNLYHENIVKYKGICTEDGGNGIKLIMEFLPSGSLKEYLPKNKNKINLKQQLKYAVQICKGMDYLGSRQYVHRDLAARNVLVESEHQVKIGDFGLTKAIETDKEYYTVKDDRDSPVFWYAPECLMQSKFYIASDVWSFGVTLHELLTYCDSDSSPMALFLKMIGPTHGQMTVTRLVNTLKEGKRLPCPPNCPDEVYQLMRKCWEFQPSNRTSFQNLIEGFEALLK
Chain of JAK2 (O60674 whole entry): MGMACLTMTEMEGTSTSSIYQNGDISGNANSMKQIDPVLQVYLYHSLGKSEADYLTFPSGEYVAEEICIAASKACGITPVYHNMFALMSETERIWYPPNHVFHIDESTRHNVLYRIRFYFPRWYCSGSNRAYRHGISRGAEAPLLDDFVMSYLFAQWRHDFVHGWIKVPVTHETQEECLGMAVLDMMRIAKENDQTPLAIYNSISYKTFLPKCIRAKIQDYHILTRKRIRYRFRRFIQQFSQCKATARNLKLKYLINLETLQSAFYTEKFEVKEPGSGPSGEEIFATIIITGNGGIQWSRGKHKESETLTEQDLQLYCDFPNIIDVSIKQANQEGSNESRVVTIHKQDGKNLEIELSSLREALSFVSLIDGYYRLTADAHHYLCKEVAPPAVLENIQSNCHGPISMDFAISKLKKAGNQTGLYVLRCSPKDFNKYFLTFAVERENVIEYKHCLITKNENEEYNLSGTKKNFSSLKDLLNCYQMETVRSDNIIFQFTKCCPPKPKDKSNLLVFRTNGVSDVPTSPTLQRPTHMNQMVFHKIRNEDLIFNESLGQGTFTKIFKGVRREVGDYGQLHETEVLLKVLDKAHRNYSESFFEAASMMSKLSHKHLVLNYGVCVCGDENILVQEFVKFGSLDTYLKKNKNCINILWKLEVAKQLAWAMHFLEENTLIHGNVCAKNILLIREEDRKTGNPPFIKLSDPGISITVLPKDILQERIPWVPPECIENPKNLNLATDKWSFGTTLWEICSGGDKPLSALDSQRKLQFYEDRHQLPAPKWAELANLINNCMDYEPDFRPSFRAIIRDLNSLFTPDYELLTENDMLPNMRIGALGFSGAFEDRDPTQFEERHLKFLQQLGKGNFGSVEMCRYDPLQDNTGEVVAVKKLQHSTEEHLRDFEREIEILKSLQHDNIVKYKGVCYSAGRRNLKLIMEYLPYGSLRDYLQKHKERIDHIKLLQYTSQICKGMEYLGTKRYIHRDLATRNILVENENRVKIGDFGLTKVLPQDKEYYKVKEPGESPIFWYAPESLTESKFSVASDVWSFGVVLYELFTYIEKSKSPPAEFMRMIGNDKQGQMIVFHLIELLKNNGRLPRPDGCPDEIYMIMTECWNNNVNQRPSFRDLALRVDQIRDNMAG
Chain of Tyk2 (P29597 whole entry): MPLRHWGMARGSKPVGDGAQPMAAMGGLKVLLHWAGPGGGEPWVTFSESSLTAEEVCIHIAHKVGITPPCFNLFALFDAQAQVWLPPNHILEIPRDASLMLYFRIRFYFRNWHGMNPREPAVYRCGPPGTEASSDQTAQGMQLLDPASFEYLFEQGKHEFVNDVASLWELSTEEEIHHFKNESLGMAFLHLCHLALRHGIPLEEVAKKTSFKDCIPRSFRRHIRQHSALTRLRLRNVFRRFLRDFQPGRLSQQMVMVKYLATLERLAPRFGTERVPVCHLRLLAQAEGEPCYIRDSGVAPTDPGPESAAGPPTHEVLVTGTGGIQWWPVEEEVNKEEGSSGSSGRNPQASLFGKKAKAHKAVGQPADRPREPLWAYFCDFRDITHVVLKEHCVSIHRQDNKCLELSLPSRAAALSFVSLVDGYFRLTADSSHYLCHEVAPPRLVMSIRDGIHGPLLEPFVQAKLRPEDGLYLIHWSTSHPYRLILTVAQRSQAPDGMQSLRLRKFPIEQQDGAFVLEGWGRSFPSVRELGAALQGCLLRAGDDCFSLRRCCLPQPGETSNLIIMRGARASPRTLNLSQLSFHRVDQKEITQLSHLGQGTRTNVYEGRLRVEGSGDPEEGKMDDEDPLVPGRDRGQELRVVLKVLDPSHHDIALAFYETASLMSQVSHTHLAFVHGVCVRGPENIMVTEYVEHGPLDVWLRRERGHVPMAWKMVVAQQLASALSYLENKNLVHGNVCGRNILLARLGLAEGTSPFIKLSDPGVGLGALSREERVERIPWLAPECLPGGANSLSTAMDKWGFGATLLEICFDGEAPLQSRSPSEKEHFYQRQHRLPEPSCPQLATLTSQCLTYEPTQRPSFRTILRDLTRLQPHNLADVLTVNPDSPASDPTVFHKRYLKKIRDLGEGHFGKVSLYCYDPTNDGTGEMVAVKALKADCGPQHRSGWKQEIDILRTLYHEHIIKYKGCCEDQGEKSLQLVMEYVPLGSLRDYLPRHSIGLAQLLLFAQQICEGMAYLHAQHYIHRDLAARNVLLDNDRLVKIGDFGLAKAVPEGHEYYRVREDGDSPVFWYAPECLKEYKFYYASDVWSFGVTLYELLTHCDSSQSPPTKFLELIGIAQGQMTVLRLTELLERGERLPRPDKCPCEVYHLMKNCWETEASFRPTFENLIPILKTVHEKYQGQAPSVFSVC

| IC50 [1] [nM] | IC50 (Tyk2) [nM] | IC50 (JAK3) [nM] | IC50 (JAK2) [nM] | IC50 (JAK1) [nM] | IC50 [2] [nM] | SMILES |
| --- | --- | --- | --- | --- | --- | --- |
| 130 | 19 | 2.5 | 1.6 | 0.68 | – | O=c1ccn([C@H]2CC[C@H](COCCC(F)(F)F)CC2)c2c1cnc1[nH]ccc12 [Synthetic Example 6, 1-{trans-4-[(3,3,3-Trifluoropropoxy)methyl]cyclohexyl}-1H-pyrrolo[2,3-h][1,6]naphthyridin-4(7H)-one] |
| 7600 | – | – | – | – | – | Cc1nc(CN2CCC(n3ccc(=O)c4cnc5[nH]ccc5c43)CC2)cs1 [Compound J, reference compound] |
| 1300 | – | – | – | – | – | O=c1ccn(C2CCCCC2)c2c1cnc1[nH]ccc12 [Compound E, reference compound] |
| 440 | 18 | 10 | 5.1 | 1.7 | – | N#CC[C@@H](NC[C@H]1CC[C@H](n2ccc(=O)c3cnc4[nH]ccc4c32)CC1)C(F)(F)F [Synthetic Example 3, (R)-4,4,4-Trifluoro-3-({[trans-4-(4-oxo-4,7-dihydro-1H-pyrrolo[2,3-h][1,6]naphthyridin-1-yl)cyclohexyl]methyl}amino)butanenitrile] |
| 170 | 10 | 2.7 | – | 0.59 | – | O=c1ccn([C@H]2CC[C@H](COCC(F)(F)F)CC2)c2c1cnc1[nH]ccc12 [Synthetic Example 5, 1-{trans-4-[(2,2,2-Trifluoroethoxy)methyl]cyclohexyl}-1H-pyrrolo[2,3-h][1,6]naphthyridin-4(7H)-one] |
| 6500 | – | – | – | – | – | COC1CCC(n2ccc(=O)c3cnc4[nH]ccc4c32)CC1 (stereo not shown) [Compound G, reference compound] |
| – | 22 | 15 | 4.6 | 0.99 | 390 | N#CC[C@@H](NC[C@H]1CC[C@H](n2c(=O)[nH]c(=O)c3cnc4[nH]ccc4c32)CC1)C(F)(F)F [Synthetic Example 1, (R)-3-({[trans-4-(2,4-Dioxo-2,3,4,7-tetrahydro-1H-pyrrolo[3′,2′:5,6]pyrido[4,3-d]pyrimidin-1-yl)cyclohexyl]methyl}amino)-4,4,4-trifluorobutanenitrile] |
| 5900 | – | – | – | – | – | O=C1CCN(C2CCC(CO)CC2)c2c1cnc1[nH]ccc21 (stereo not shown) [Compound F, reference compound] |
| 300 | 39 | 7.1 | 1.9 | 0.41 | – | Cc1cnn(C[C@H]2CC[C@H](n3ccc(=O)c4cnc5[nH]ccc5c43)CC2)c1 [Synthetic Example 4, 1-{trans-4-[(4-Methyl-1H-pyrazol-1-yl)methyl]cyclohexyl}-1H-pyrrolo[2,3-h][1,6]naphthyridin-4(7H)-one] |
| 150 | 11 | 5.1 | 2 | 0.74 | – | N#CC[C@@H](OC[C@H]1CC[C@H](n2ccc(=O)c3cnc4[nH]ccc4c32)CC1)C(F)(F)F [Synthetic Example 7, (R)-4,4,4-Trifluoro-3-{[trans-4-(4-oxo-4,7-dihydro-1H-pyrrolo[2,3-h][1,6]naphthyridin-1-yl)cyclohexyl]methoxy}butanenitrile] |
| – | – | – | – | – | 2400 | O=c1[nH]c(=O)n(C2CCC(CNCC(F)(F)F)CC2)c2c1cnc1[nH]ccc12 (stereo not shown) [A] |
| – | 26 | 2.9 | 1.5 | 0.35 | 270 | O=c1[nH]c(=O)n([C@H]2CC[C@H](COCCC(F)(F)F)CC2)c2c1cnc1[nH]ccc12 [Synthetic Example 2, 1-{trans-4-[(3,3,3-Trifluoropropoxy)methyl]cyclohexyl}-1H-pyrrolo[3′,2′:5,6]pyrido[4,3-d]pyrimidine-2,4(3H,7H)-dione] |
| – | – | – | – | – | 1300 | N#CCCN(CCC#N)CC1CCC(n2c(=O)[nH]c(=O)c3cnc4[nH]ccc4c32)CC1 (stereo not shown) [Compound B] |
